Experimental data from patent US9249116B2, “Enzyme-activating compounds and compositions” (The Board of Trustees of the University of Illinois, priority 2012, dated 2016).

Columns and labels:
[1] = biological target: T1, procaspase-3 (Homo sapiens, UniProt P42574); assay: Procaspase-3 activity assay (relief of zinc-mediated inhibition, Ac-DEVD-pNA cleavage); format: biochemical; conditions: procaspase-3 incubated with […] ZnSO4; method gives compounds at 25 μM
T1 construct: 6xHis (C); made in house; host or cells: Rosetta E. coli
T1 sequence (P42574 1-277): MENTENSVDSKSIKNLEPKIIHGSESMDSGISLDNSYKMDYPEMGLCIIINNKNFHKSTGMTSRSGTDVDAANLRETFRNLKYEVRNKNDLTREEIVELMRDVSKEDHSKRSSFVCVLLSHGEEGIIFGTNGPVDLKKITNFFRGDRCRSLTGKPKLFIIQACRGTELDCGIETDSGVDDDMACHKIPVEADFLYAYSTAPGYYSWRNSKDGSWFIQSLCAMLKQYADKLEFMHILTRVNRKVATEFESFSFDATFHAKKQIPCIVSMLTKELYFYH
Method: The six confirmed hits were then evaluated in vitro for their ability to relieve zinc-mediated inhibition of procaspase-3 (Table A). In this experiment, procaspase-3 was incubated with ZnSO4, conditions in which procaspase-3 has no enzymatic activity.
Techniques adapted from Hergenrother and coworkers (Putt et al., Nat Chem Biol 2006, 2, 543-550). A 20 mL volume of an overnight culture of Rosetta E. coli containing the procaspase-3 (wild-type) expression plasmid was seeded into 2 L of LB media containing ampicillin. The culture was grown to an OD600=1.0, at which point protein expression was induced via addition of IPTG (to 1 mM); the culture was allowed to grow for 30 additional minutes. Cells were then harvested (10 minute spins at 10,000×g and re-suspended in NTA binding buffer (300 mM NaCl, 50 mM Tris, 10 mM imidazole, pH 8.0). The cells were lysed on ice via sonication. The cell lysate was then spun at 35,000×g for […] The supernatant was decanted and 1 mL of nickel-NTA resin was added. The cell lysate was incubated for 45 minutes at 4° C. The resin was loaded on a column, washed with 10 mL NTA binding buffer followed by 10 mL NTA wash buffer (300 mM NaCl, 50 mM Tris, 50 mM imidazole, pH 8.0). The proteins were eluted in 0.5 mL fractions with 10 mL of NTA elution buffer (300 mM NaCl, 50 mM Tris, 500 mM imidazole, pH 8.0). Fractions containing protein were pooled and further purified to remove any contaminating zinc by applying the protein to a PD-10 column (GE Healthcare) charged with Caspase Activity Buffer that had been treated with Chelex® resin. The resulting concentration was determined using the Edelhoch method and the molar absorptivity of procaspase-3 of 26150 M^−1 cm^−1. Protein stocks were flash-frozen in liquid nitrogen and stored at −80° C.
In a 384-well plate recombinantly expressed, zinc-free procaspase-3 (wild type, at 1 μM) in Caspase Activity Buffer (50 mM HEPES, 300 mM NaCl, 1.5 mM TCEP, 0.01% TritonX-100) was incubated at 37° C. in the presence of 3.5 μM ZnSO4 and the basal activity was assessed via the addition of Ac-DEVD-pNA (final concentration in well of 200 μM). The absorbance at 405 nm was monitored with a SpectraMax plate reader (Molecular Devices). […] Activity of each treatment was assessed at 5, 20, 40 and 60 minutes via 5-minute kinetic reads. The slope of each data set was used to determine the activity of the protein. Activity was normalized to a percent activity at each time point using a zinc-free sample and a zinc-inhibited sample treated with DMSO.

[2] = Liver microsome stability assay; format: in vitro ADME; conditions: rat liver microsomes, 10 μM, LC/MS
Method: FIG. 4. Liver Microsome Stability Assay. Compounds (10 μM) incubated with liver microsomes for 3 h and quenched with MeCN containing internal standard, analyzed by LC/MS (280 nm). Next, the metabolic stability of the compounds was evaluated in rat liver microsomes. The compounds were evaluated for 3 hours at 10 μM, and the metabolites were observed by LC/MS.

[3] = system: mice; assay: Assessment of toxicity in vivo; conditions: mice; scale 0 to 3, or time of death
Description: The level of toxicity was rated on a scale of 0 (no observable adverse effect) to 3 (severe toxicity, almost fatal).

[4] = system: U-937 cells (human lymphoma); assay: 72 Hour IC50 cell death assay (sulforhodamine B); format: cell-based; conditions: read-out: U-937 72 h IC50 (μM), Table 1, U-937 cells, 72 h
Method: After the synthesis was complete, the biological activity of the compounds was evaluated.
U-937 human lymphoma cells were plated into the wells of 96 well plate at a density of 15,000 cells per well in 99 μL of RPMI 1640 growth media with 10% FBS and 1% pen-strep. To each well was added 1 μL of compound stock solutions in DMSO at varying concentrations such that the cells were treated with concentrations between 0 μM and 100 μM compound. Each concentration was tested in quintuplicate per plate. In each plate 5 wells received 20 μM doxorubicin as a positive death control and 5 wells received 1 μL of DMSO as a negative control.
After the 72 hour incubation period, the plates were analyzed using a Sulforhodamine B assay (Vichai and Kirtikara, Nat Protoc 2006, 1, 1112-1116). Specifically, to each well of the plate 25 μL of a 50% (w/v) solution of trichloroacetic acid in H2O was added and the plates were incubated for 4 hours at 4° C. The plates were then washed gently with water five times. The plates were allowed to air dry after which 100 μL of a 0.057% (w/v) Sulforhodamine B in a 1% (v/v) acetic acid solution was added to each well for 30 minutes at room temperature. The plates were gently washed 5 times with 1% (v/v) acetic acid and air dried. 200 μL of 10 mM Tris base (pH 10.4) was added to each well and the plates were placed on an orbital shaker for thirty minutes. The level of SRB was quantified fluorometrically at excitation and emission wavelengths 488 and 585 nm, respectively, on a Molecular Devices plate reader and the percent cell death calculated and normalized to the positive control (100% cell death) and the negative control (0% cell death). The percent cell death was averaged for each compound concentration and plotted as a function of compound concentration. The data were fit to a logistical dose response curve using Table curve 2D and the IC50 value was calculated. The experiment was repeated three times and the average of the calculated IC50 values was reported. The standard error of the mean (SEM) was determined and reported for the triplicate experiments.

| Compound | Procaspase-3 (% Activity at […]) [1] [%] | RLM 3 h % Stability [2] [%] | Mouse Toxicity [3] | IC50 [4] [µM] |
| --- | --- | --- | --- | --- |
| COc1ccc(CN2CCN(CC(=O)N/N=C/c3cc(C(C)(C)C)cc(C(C)(C)C)c3O)CC2)cc1 [3{2,7}] | 53 ± 4.1 | – | – | – |
| COc1ccc(OC)c(CN2CCN(CC(=O)N/N=C/c3cc(C(C)(C)C)cc(C(C)(C)C)c3O)CC2)c1 [3{4,7}] | 64 ± 2.5 | – | – | – |
| CC(C)(C)c1cc(/C=N/NC(=O)CN2CCN(Cc3ccc(OCc4ccccc4)cc3)CC2)c(O)c(C(C)(C)C)c1 [3{18,7}] | 36 ± 1.6 | – | – | – |
| C=CCc1cccc(/C=N/NC(=O)CN2CCN(Cc3ccc(C(C)(C)C)cc3)CC2)c1O [3{20,24}, N′-(3-allyl-2-hydroxybenzylidene)-2-(4-(4-(tert-butyl)benzyl)piperazin-1-yl)acetohydrazide] | 82 ± 2.4 | – | – | – |
| CC(C)(C)c1cc(/C=N/NC(=O)CN2CCN(Cc3ccc4ccccc4c3)CC2)c(O)c(C(C)(C)C)c1 [3{25,7}] | 69 ± 5.3 | – | – | – |
| C=CCc1cccc(/C=N/NC(=O)CN2CCN(C(=O)c3ccc(F)cc3)CC2)c1O [Compound 7, N′-(3-allyl-2-hydroxybenzylidene)-2-(4-(4-fluorobenzoyl)piperazin-1-yl)acetohydrazide] | – | 86 ± 2 | 2 | 10.2 ± 1.7 |
| CCCc1cccc(/C=N/NC(=O)CN2CCN(Cc3ccccc3)CC2)c1O [Compound 10, 2-(4-benzylpiperazin-1-yl)-N′-(2-hydroxy-3-propylbenzylidene)acetohydrazide] | – | 30 ± 1 | 2 | 9.6 ± 2.1 |
| CCCc1cccc(/C=N/NC(=O)CN2CCN(Cc3ccc(F)cc3)CC2)c1O [Compound 15, 2-(4-(4-fluorobenzyl)piperazin-1-yl)-N′-(2-hydroxy-3-propylbenzylidene)acetohydrazide] | – | 24 ± 2 | death <24 h (the mice died either within 24 hours of treatment) | 10 ± 1.7 |
| O=C(CN1CCN(Cc2ccccc2)CC1)N/N=C/c1cc(F)ccc1O [Compound 19, 2-(4-benzylpiperazin-1-yl)-N′-(5-fluoro-2-hydroxybenzylidene)acetohydrazide] | – | 64 ± 4 | 3 | 17 ± 1.4 |
| NS(=O)(=O)c1ccc(CN2CCN(CC(=O)N/N=C/c3cc(F)ccc3O)CC2)cc1 [Compound 20, 4-((4-(2-(2-(5-fluoro-2-hydroxybenzylidene)hydrazinyl)-2-oxoethyl)piperazin-1-yl)methyl)benzenesulfonamide] | – | 85 ± 6 | death >72 h (greater than 72 hours post-treatment) | 19.6 ± 3.8 |
| N#Cc1ccc(CN2CCN(CC(=O)N/N=C/c3cc(F)ccc3O)CC2)cc1 [Compound 22, 2-(4-(4-cyanobenzyl)piperazin-1-yl)-N′-(5-fluoro-2-hydroxybenzylidene)acetohydrazide] | – | 79 ± 4 | death <24 h (the mice died either within 24 hours of treatment) | 13.5 ± 1 |
| O=C(CN1CCN(Cc2ccc(F)cc2)CC1)N/N=C/c1cc(F)ccc1O [Compound 24, N′-(5-fluoro-2-hydroxybenzylidene)-2-(4-(4-fluorobenzyl)piperazin-1-yl)acetohydrazide] | – | 62 ± 2 | 3 | 11.7 ± 1.4 |
| O=C(CN1CCN(Cc2ccc(C(F)(F)F)cc2)CC1)N/N=C/c1cc(F)ccc1O [Compound 26, N′-(5-fluoro-2-hydroxybenzylidene)-2-(4-(4-(trifluoromethyl)benzyl)piperazin-1-yl)acetohydrazide] | – | 30 ± 5 | 3 | 4.7 ± 0.3 |
| O=C(CN1CCN(C(=O)c2ccc(C(F)(F)F)cc2)CC1)N/N=C/c1cc(F)ccc1O [Compound 27, N′-(5-fluoro-2-hydroxybenzylidene)-2-(4-(4-(trifluoromethyl)benzoyl)piperazin-1-yl)acetohydrazide] | – | 87 ± 3 | 2 | 8.7 ± 0.5 |
| C=CCc1cc(F)cc(/C=N/NC(=O)CN2CCN(Cc3ccccc3)CC2)c1O [Compound 28, N′-(3-allyl-5-fluoro-2-hydroxybenzylidene)-2-(4-benzylpiperazin-1-yl)acetohydrazide] | – | 56 ± 1 | death <24 h (the mice died either within 24 hours of treatment) | 9.5 ± 0.9 |
| C=CCc1cc(F)cc(/C=N/NC(=O)CN2CCN(C(=O)c3ccccc3)CC2)c1O [Compound 30, N′-(3-allyl-5-fluoro-2-hydroxybenzylidene)-2-(4-benzoylpiperazin-1-yl)acetohydrazide] | – | 93 ± 7 | 2 | 8.6 ± 2 |
| C=CCc1cc(F)cc(/C=N/NC(=O)CN2CCN(C(=O)c3ccc(F)cc3)CC2)c1O [Compound 34, N′-(3-allyl-5-fluoro-2-hydroxybenzylidene)-2-(4-(4-fluorobenzoyl)piperazin-1-yl)acetohydrazide] | – | 92 ± 3 | 3 | 8.5 ± 1.4 |
| CCCc1cc(F)cc(/C=N/NC(=O)CN2CCN(Cc3ccccc3)CC2)c1O [Compound 37, 2-(4-benzylpiperazin-1-yl)-N′-(5-fluoro-2-hydroxy-3-propylbenzylidene)acetohydrazide] | – | 49 ± 6 | death <24 h (the mice died either within 24 hours of treatment) | 8.9 ± 1.2 |
| CCCc1cc(F)cc(/C=N/NC(=O)CN2CCN(C(=O)c3ccccc3)CC2)c1O [Compound 39, 2-(4-benzoylpiperazin-1-yl)-N′-(5-fluoro-2-hydroxy-3-propylbenzylidene)acetohydrazide] | – | 86 ± 5 | 2 | 12.3 ± 1 |
| CCCc1cc(F)cc(/C=N/NC(=O)CN2CCN(C(=O)c3ccc(F)cc3)CC2)c1O [Compound 43, N′-(5-fluoro-2-hydroxy-3-propylbenzylidene)-2-(4-(4-fluorobenzoyl)piperazin-1-yl)acetohydrazide] | – | 67 ± 3 | 3 | 7.5 ± 1.4 |
